# Paper PMC6874530, “Structural analysis identifies an escape route from the adverse lipogenic effects of liver X receptor ligands” (Communications Biology, 2019)
# What was measured:
# [1] = quantification of drug concentration in plasma of mice; type: in vivo, mouse; conditions: oral gavage
# Experimental: Solid compounds were solubilized in PEG400/Ethanol/Solutol/Water solution (36.3/9.1/4.6/50%). Compounds were given daily by oral gavage, 5 ml kg^−1, at doses ranging from 0.1 to 100 μmol kg^−1 of body weight for 4 days. Animals were terminated 3 h after the last dose.
# At termination, the whole-blood volume was drawn from isoflurane-anesthetized mice via an incision in the carotid artery into EDTA blood tubes (S-Monovette®, EDTA KE/1.3 mL, Sarstedt, Nümbrecht, Germany or BD Microtainers®, Benton, Dickinson and Company, Franklin Lakes, New Jersey, USA). Blood samples were placed on ice and centrifuged within an hour (15 min, 2500 × g, 4 °C or 5 min, 16000 × g, 4 °C). The plasma was then dispensed in separate tubes and kept at −80 °C for later analysis of compound concentration and TG levels. For the analysis of intestinal Abca1 transcript levels, a 3–5-mm long segment of the duodenum was excised and cleared from any gut contents. Tissues were instantly snap frozen in liquid nitrogen and stored at −80 °C.
# About 25 µL of plasma was precipitated with 150 µL of cold acetonitrile containing 0.2% formic acid. After vortexing followed by 20 min of centrifugation at 3220 × g and 4 °C, the supernatant was diluted 1:1 with 0.2% formic acid (aqueous phase). […]
# LXRβ LBD = target: T1, LXRβ LBD (Homo sapiens, UniProt P55055); conditions: LXRβ over LXRα binding
# T1 sequence (P55055 215-460 limits assumed): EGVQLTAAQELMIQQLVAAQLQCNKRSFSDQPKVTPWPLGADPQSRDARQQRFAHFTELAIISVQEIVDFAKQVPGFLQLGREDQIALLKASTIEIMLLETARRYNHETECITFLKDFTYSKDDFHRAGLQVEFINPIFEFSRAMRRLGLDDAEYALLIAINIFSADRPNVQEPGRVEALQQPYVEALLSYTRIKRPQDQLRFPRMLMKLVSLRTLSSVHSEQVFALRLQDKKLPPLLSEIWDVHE
# Source text: The compounds were run in triplicate (binding assay) or in quadruplicate (transactivation assay). Standard deviations are indicated for individual experiments run more than once.
# LXR KO macrophages = test: LXR target gene expression in LXR KO macrophages; type: cell-based; conditions: reply to reviewers
# LXRβ/NCOR1 = target: T2, LXRβ/NCOR1 (Homo sapiens, UniProt P55055); test: SPR cofactor recruitment, LXRβ LBD binding to immobilized NCOR1 corepressor peptide
# T2 construct: human his-tagged LXRβ LBD (216-461); His tag; made in house; host or cells: Escherichia coli BL21(DE3)
# T2 sequence (P55055 215-460 limits assumed): T1 sequence (P55055 215-460 limits assumed)
# Experimental: (§1) The peptides carried an N-terminal biotin for surface immobilization on a Xantec NID200M Sensor Chip (NTA-derivatized carboxymethyldextran hydrogel, XanTec bioanalytics GmbH) preloaded with Ni^2+. […] LXRα and LXRβ LBD proteins were serially diluted in SPR running buffer (10 mM HEPES, 150 mM NaCl, and 0.05% Tween 20, pH 7.4) to a broad range of concentrations (0.02–10 µM) and equilibrated with tested compound (50 μM) prior to the sample injection over a modified biosensor surface. LXR-ligand complexes were injected in quick succession for 120 s over immobilized cofactor peptides and reference surfaces along with blank samples followed by 900 s of dissociation. The binding level at equilibrium was monitored for all samples, including the reference sample that contained DMSO at equal amount as tested compounds. All data were normalized to this reference sample in order to quantify the effects on peptide binding without bias by receptor instability. The surface was regenerated with 0.5% (w/v) SDS after each injection. Binding responses in the steady-state region of the sensorgrams were plotted against LXR LBD concentration to determine the overall equilibrium-binding affinity by fitting the data to nonlinear regression (Prism 8; GraphPad).
# LXRβ/SRC1 = target: T3, LXRβ/SRC1 (Homo sapiens, UniProt P55055); test: SPR cofactor recruitment, LXRβ LBD binding to immobilized SRC1 coactivator peptide; conditions: LXRβ LBD 0.02–10 µM equilibrated with compound (50 μM), immobilized SRC1 peptide; read-out: LXRβ/SRC1 Kd
# T3 construct: human his-tagged LXRβ LBD (216-461); His tag; made in house; host or cells: Escherichia coli BL21(DE3)
# T3 sequence (P55055 215-460 limits assumed): T1 sequence (P55055 215-460 limits assumed)
# T3 sequence (Q15788 with tags, fused parts or gaps partner limits assumed): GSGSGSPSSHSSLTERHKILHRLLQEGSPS
# Experimental: as §1
# ABCA1 mRNA = test: human whole blood assay, ABCA1 mRNA; type: cell-based; conditions: preliminary results, reply to reviewers
# LXRα/SRC1 = target: T4, LXRα/SRC1 (Homo sapiens, UniProt Q13133); test: SPR cofactor recruitment, LXRα LBD binding to immobilized SRC1 coactivator peptide; conditions: LXRα LBD 0.02–10 µM equilibrated with compound (50 μM)
# T4 construct: Human his-tagged LXRα LBD (200-447); His tag; made in house; host or cells: Escherichia coli BL21(DE3)
# T4 sequence (Q13133 200-447): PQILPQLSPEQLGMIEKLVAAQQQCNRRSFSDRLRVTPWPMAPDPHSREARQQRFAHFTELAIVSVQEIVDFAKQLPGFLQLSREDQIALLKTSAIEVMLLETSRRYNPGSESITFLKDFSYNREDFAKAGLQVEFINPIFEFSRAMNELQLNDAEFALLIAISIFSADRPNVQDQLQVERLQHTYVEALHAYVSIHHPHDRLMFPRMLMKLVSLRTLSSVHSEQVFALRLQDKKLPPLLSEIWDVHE
# T4 sequence (Q15788 with tags, fused parts or gaps partner limits assumed): T3 sequence (Q15788 with tags, fused parts or gaps partner limits assumed)
# Experimental: as §1
# plasma triglycerides = tested on: plasma triglycerides; parameters: method as in van der Hoorn et al. 2011; conditions: AZ876 high dose 20 µmol·kg−1·day−1, GW3965 at a similar dose; ref van der Hoorn et al. 2011; cited from earlier work
smiles,measurement,setting,value
CN(C)C(=O)c1cnc(N2CC[C@@H](CNC3=C(c4ccccc4)S(=O)(=O)N(C(C)(C)C)C3=O)C2)c(Cl)c1 [AZ5],systemic exposure,[1],too low
CC(C)(C)N1C(=O)C(Cc2ccccc2)=C(NC2CCN(c3ncc(CC(=O)O)cc3Cl)CC2)C1=O [AZ7],LXRβ binding selectivity,LXRβ LBD,more than tenfold
CC(C)(O)c1cn(-c2ccc(-c3cc(F)c(CO)c(S(C)(=O)=O)c3)cc2F)c(C(C)(C)c2c(Cl)cccc2Cl)n1 [BMS-852927],LXR target gene expression in LXR KO macrophages,LXR KO macrophages,does not induce LXR
same,effect on the LXRβ/NCOR1 interaction,LXRβ/NCOR1,enhanced the interaction
same,Kd,LXRβ/SRC1,19.8 µM
same,ABCA1 mRNA levels in human whole blood assay,ABCA1 mRNA,"induces ABCA1 mRNA levels, however with lower efficiency than full"
CC(C)N1C(=O)C(NC2CCN(c3ncc(CC(=O)O)cc3Cl)CC2)=C(c2ccccc2)S1(=O)=O [AZ6],Kd,LXRα/SRC1,1.5 µM
"O=C(O)Cc1cccc(OCCCN(Cc2cccc(C(F)(F)F)c2Cl)CC(c2ccccc2)c2ccccc2)c1 [GW3965, reference compound]",increase of plasma triglyceride levels,plasma triglycerides,70%
